Test results: patent US10351575B2, “Bicyclic urea, thiourea, guanidine and cyanoguanidine compounds useful for the treatment of pain” (Array BioPharma Inc., priority 2012, dated 2019)

What follows are molecules tested against His-tagged recombinant human TrkA (Homo sapiens (Human), UniProt P04629) (assay: TrkA LanthaScreen Eu Kinase Binding Assay). Conditions: averaged IC50; TR-FRET binding, 60 min, 22° C.; read-out: TrkA Enzyme IC50.
Method: TrkA binding activity was determined in a TrkA LanthaScreen™ Eu Kinase Binding Assay. 5 nM His-tagged recombinant human TrkA (6HIS tagged cytoplasmic domain from Invitrogen, Catalog No. PV3144) was incubated with 4 nM Alexa-Fluor® Tracer 236 (Invitrogen Cat. No. PV5592), 2 nM biotinylated anti-His (Invitrogen Cat. No. PV6090), and 2 nM europium-labeled Streptavidin (Invitrogen Cat. No. PV5899), in buffer (25 mM MOPS, pH 7.5, 5 mM MgCl2, 0.005% Triton X-100). Three fold serial dilutions of compounds of the invention in DMSO were added to a final percentage of 2% DMSO. After 60-minute incubation at 22° C., the reaction was measured using the EnVision mutlimode plate reader (PerkinElmer) via TR-FRET dual wavelength detection at […]. The percent of control was calculated using a ratiometric emission factor. The IC50 values were determined by fitting a four parameter model to the percent of control data.

Sequence of His-tagged recombinant human TrkA (P04629 440-796): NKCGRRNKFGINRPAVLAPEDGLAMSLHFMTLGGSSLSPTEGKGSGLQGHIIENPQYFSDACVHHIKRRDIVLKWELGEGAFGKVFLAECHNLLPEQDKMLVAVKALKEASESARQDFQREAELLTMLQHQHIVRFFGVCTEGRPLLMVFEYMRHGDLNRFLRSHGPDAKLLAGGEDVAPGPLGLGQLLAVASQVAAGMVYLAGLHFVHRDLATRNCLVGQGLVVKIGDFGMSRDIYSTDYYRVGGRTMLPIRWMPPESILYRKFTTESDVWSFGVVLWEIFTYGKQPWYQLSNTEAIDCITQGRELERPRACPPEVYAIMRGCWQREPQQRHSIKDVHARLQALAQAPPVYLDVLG

Question: `Cc1c(-c2cnn(C)c2)nn(-c2ccccc2)c1NC(=O)NC1CN(CC(F)(F)F)CCc2ccccc21` (stereo not shown) [Example 18, 1-(1′,4-dimethyl-1-phenyl-1H,1′H-3,4′-bipyrazol-5-yl)-3-(3-(2,2,2-trifluoroethyl)-2,3,4,5-tetrahydro-1H-benzo[d]azepin-1-yl)urea] was tested. Which IC50 did it give?
Answer: 100 to 1000 nM

Question: Which IC50 does the source give for `CC(=O)N1CCc2ccccc2C(NC(=O)Nc2c(C)c(-c3cnn(C)c3)nn2-c2ccccc2)C1` (stereo not shown) [Example 19, 1-(3-acetyl-2,3,4,5-tetrahydro-1H-benzo[d]azepin-1-yl)-3-(1′,4-dimethyl-1-phenyl-1H,1′H-3,4′-bipyrazol-5-yl)urea] here?
Answer: 100 to 1000 nM

Question: For `CCC(=O)N1CCc2ccccc2C(NC(=O)Nc2c(C)c(-c3cnn(C)c3)nn2-c2ccccc2)C1` (stereo not shown) [Example 20, 1-(1′,4-dimethyl-1-phenyl-1H,1′H-3,4′-bipyrazol-5-yl)-3-(3-propionyl-2,3,4,5-tetrahydro-1H-benzo[d]azepin-1-yl)urea], which IC50 is on record?
Answer: 100 to 1000 nM

Question: Which IC50 does the source give for `CCCN1CCc2ccccc2C(NC(=O)Nc2c(C)c(-c3cnn(C)c3)nn2-c2ccccc2)C1` (stereo not shown) [Example 21] here?
Answer: 100 to 1000 nM

Question: Which IC50 does the source give for `CCN1Cc2ccccc2C(NC(=O)Nc2c3c(nn2-c2ccccc2)CCC3)C1` (stereo not shown) [Example 22, 1-(2-ethyl-1,2,3,4-tetrahydroisoquinolin-4-yl)-3-(2-phenyl-2,4,5,6-tetrahydrocyclopenta[c]pyrazol-3-yl)urea] here?
Answer: 100 to 1000 nM

Question: How did the IC50 turn out when `COCCN1Cc2ccccc2C(NC(=O)Nc2c3c(nn2-c2ccccc2)CCC3)C1` (stereo not shown) [Example 23, 1-(2-(2-methoxyethyl)-1,2,3,4-tetrahydroisoquinolin-4-yl)-3-(2-phenyl-2,4,5,6-tetrahydrocyclopenta[c]pyrazol-3-yl)urea] was run?
Answer: 100 to 1000 nM

Question: Which IC50 does the source give for `CC(=O)N1Cc2ccccc2C(NC(=O)Nc2c3c(nn2-c2ccccc2)CCC3)C1` (stereo not shown) [Example 24, 1-(2-acetyl-1,2,3,4-tetrahydroisoquinolin-4-yl)-3-(2-phenyl-2,4,5,6-tetrahydrocyclopenta[c]pyrazol-3-yl)urea] here?
Answer: 100 to 1000 nM

Question: For `Cc1c(-c2cnn(C)c2)nn(-c2ccccc2)c1NC(=O)NC1CN(CC(F)(F)F)Cc2ccccc21` (stereo not shown) [Example 25, 1-(1′,4-dimethyl-1-phenyl-1H,1′H-3,4′-bipyrazol-5-yl)-3-(2-(2,2,2-trifluoroethyl)-1,2,3,4-tetrahydroisoquinolin-4-yl)urea], which IC50 is on record?
Answer: < 100 nM

Question: How did the IC50 turn out when `Cc1c(-c2cn(C)cn2)nn(-c2ccccc2)c1NC(=O)NC1CN(CC(F)(F)F)Cc2ccccc21` (stereo not shown) [Example 27, 1-(4-methyl-3-(1-methyl-1H-imidazol-4-yl)-1-phenyl-1H-pyrazol-5-yl)-3-(2-(2,2,2-trifluoroethyl)-1,2,3,4-tetrahydroisoquinolin-4-yl)urea] was run?
Answer: < 100 nM

Question: `O=C(Nc1c2c(nn1-c1ccccc1)CCC2)NC1CN(CC(F)(F)F)Cc2ccccc21` (stereo not shown) [Example 28, 1-(2-phenyl-2,4,5,6-tetrahydrocyclopenta[c]pyrazol-3-yl)-3-(2-(2,2,2-trifluoroethyl)-1,2,3,4-tetrahydroisoquinolin-4-yl)urea] was tested. Which IC50 did it give?
Answer: < 100 nM

Question: For `CNC(=O)c1nn(-c2ccccc2)c(NC(=O)NC2CN(CC(F)(F)F)Cc3ccccc32)c1C` (stereo not shown) [Example 29, N,4-dimethyl-1-phenyl-5-(3-(2-(2,2,2-trifluoroethyl)-1,2,3,4-tetrahydroisoquinolin-4-yl)ureido)-1H-pyrazole-3-carboxamide], which IC50 is on record?
Answer: < 100 nM

Question: With `Cc1c(NC(=O)NC2CN(CC(F)(F)F)Cc3ccccc32)n(-c2ccccc2)[nH]c1=O` (stereo not shown) [Example 30, 1-(4-methyl-5-oxo-2-phenyl-2,5-dihydro-1H-pyrazol-3-yl)-3-(2-(2,2,2-trifluoroethyl)-1,2,3,4-tetrahydroisoquinolin-4-yl)urea] as the molecule, how does the IC50 read?
Answer: < 100 nM

Question: Which IC50 does the source give for `Cc1nn(-c2ccccc2)c(NC(=O)NC2CN(CC(F)(F)F)Cc3ccccc32)c1C(N)=O` (stereo not shown) [Example 31, 3-methyl-1-phenyl-5-(3-(2-(2,2,2-trifluoroethyl)-1,2,3,4-tetrahydroisoquinolin-4-yl)ureido)-1H-pyrazole-4-carboxamide] here?
Answer: < 100 nM

Question: Which IC50 does the source give for `Cc1c(-c2cnn(C)c2)nn(-c2ccccc2)c1NC(=O)NC1CC(C2CC2)Oc2ccc(Br)cc21` (stereo not shown) [Example 33, 1-(6-bromo-2-cyclopropylchroman-4-yl)-3-(1′,4-dimethyl-1-phenyl-1H,1′H-[3,4′-bipyrazo]-5-yl)urea] here?
Answer: < 100 nM

Question: `Cc1c(-c2cnn(C)c2)nn(-c2ccccc2)c1NC(=O)NC1CC2(CCC2)Oc2ccc(Br)cc21` (stereo not shown) [Example 34, 1-(6-bromospiro[chroman-2,1′-cyclobutan]-4-yl)-3-(1′,4-dimethyl-1-phenyl-1H,1′H-[3,4′-bipyrazol]-5-yl)urea] was tested. Which IC50 did it give?
Answer: < 100 nM

Question: For `COCc1ccc2c(c1)C(NC(=O)Nc1c(C)c(-c3cnn(C)c3)nn1-c1ccccc1)CC1(CCC1)O2` (stereo not shown) [Example 35A, 1-(1′,4-dimethyl-1-phenyl-1H,1′H-[3,4′-bipyrazol]-5-yl)-3-(6-(methoxymethyl)spiro[chroman-2,1′-cyclobutan]-4-yl)urea], which IC50 is on record?
Answer: < 100 nM

Question: How did the IC50 turn out when `Cc1c(-c2cnn(C)c2)nn(-c2ccccc2)c1NC(=O)NC1CC2(CCC2)Oc2ccccc21` (stereo not shown) [Example 35B, 1-(1′,4-dimethyl-1-phenyl-1H,1′H-[3,4′-bipyrazol]-5-yl)-3-(spiro[chroman-2,1′-cyclobutan]-4-yl)urea] was run?
Answer: 100 to 1000 nM

Question: How did the IC50 turn out when `Cc1c(-c2cnn(C)c2)nn(-c2ccccc2)c1NC(=O)NC1CCC(=O)c2ccccc21` (stereo not shown) [Example 36, 1-(1′,4-dimethyl-1-phenyl-1H,1′H-[3,4′-bipyrazol]-5-yl)-3-(4-oxo-1,2,3,4-tetrahydronaphthalen-1-yl)urea] was run?
Answer: 100 to 1000 nM

Question: How did the IC50 turn out when `Cc1c(-c2cnn(C)c2)nn(-c2ccccc2)c1NC(=O)NC1CCC(C)(O)c2ccccc21` (stereo not shown) [Example 37, 1-(1′,4-dimethyl-1-phenyl-1H,1′H-[3,4′-bipyrazol]-5-yl)-3-(4-hydroxy-4-methyl-1,2,3,4-tetrahydronaphthalen-1-yl)urea] was run?
Answer: 100 to 1000 nM

Question: Which IC50 does the source give for `Cc1c(-c2cnn(C)c2)nn(-c2ccccc2)c1NC(=O)Nc1cn(CC(F)(F)F)c(=O)c2ccccc12` [Example 38, 1-(1′,4-dimethyl-1-phenyl-1H,1′H-[3,4′-bipyrazol]-5-yl)-3-(1-oxo-2-(2,2,2-trifluoroethyl)-1,2-dihydroisoquinolin-4-yl)urea] here?
Answer: 100 to 1000 nM

Question: Which IC50 does the source give for `COc1nn(-c2ccccc2)c(NC(=O)NC2CCN(C)c3ccccc32)c1C` (stereo not shown) [Example 39, 1-(3-methoxy-4-methyl-1-phenyl-1H-pyrazol-5-yl)-3-(1-methyl-1,2,3,4-tetrahydroquinolin-4-yl)urea] here?
Answer: < 100 nM

Question: `Cc1c(-c2cnn(C)c2)nn(-c2ccccc2)c1NC(=O)NC1CCN(C)c2ccccc21` (stereo not shown) [Example 40, 1-(1′,4-dimethyl-1-phenyl-1H,1′H-[3,4′-bipyrazol]-5-yl)-3-(1-methyl-1,2,3,4-tetrahydroquinolin-4-yl)urea] was tested. Which IC50 did it give?
Answer: 100 to 1000 nM

Question: How did the IC50 turn out when `Cc1c(-c2ccc(=O)n(C)c2)nn(-c2ccccc2)c1NC(=O)NC1CCN(C)c2ccccc21` (stereo not shown) [Example 41, 1-(1-methyl-1,2,3,4-tetrahydroquinolin-4-yl)-3-(4-methyl-3-(1-methyl-6-oxo-1,6-dihydropyridin-3-yl)-1-phenyl-1H-pyrazol-5-yl)urea] was run?
Answer: < 100 nM

Question: `CCN1CCC(NC(=O)Nc2c(C)c(-c3ccc(=O)n(C)c3)nn2-c2ccccc2)c2ccccc21` (stereo not shown) [Example 42, 1-(1-ethyl-1,2,3,4-tetrahydroquinolin-4-yl)-3-(4-methyl-3-(1-methyl-6-oxo-1,6-dihydropyridin-3-yl)-1-phenyl-1H-pyrazol-5-yl)urea] was tested. Which IC50 did it give?
Answer: < 100 nM

Question: Which IC50 does the source give for `Cc1c(-c2ccc(=O)n(C)c2)nn(-c2ccccc2)c1NC(=O)NC1CCN(C)c2c(F)cccc21` (stereo not shown) [Example 43, 1-(8-fluoro-1-methyl-1,2,3,4-tetrahydroquinolin-4-yl)-3-(4-methyl-3-(1-methyl-6-oxo-1,6-dihydropyridin-3-yl)-1-phenyl-1H-pyrazol-5-yl)urea] here?
Answer: 100 to 1000 nM

Question: Which IC50 does the source give for `Cc1c(-c2ccc(=O)n(C)c2)nn(-c2ccccc2)c1NC(=O)NC1CCN(C)c2c(F)cc(Cl)cc21` (stereo not shown) [Example 44, 1-(6-chloro-8-fluoro-1-methyl-1,2,3,4-tetrahydroquinolin-4-yl)-3-(4-methyl-3-(1-methyl-6-oxo-1,6-dihydropyridin-3-yl)-1-phenyl-1H-pyrazol-5-yl)urea] here?
Answer: < 100 nM

Question: For `CCN1CCC(NC(=O)Nc2c(C)c(-c3ccc(=O)n(C)c3)nn2-c2ccccc2)c2cc(Cl)ccc21` (stereo not shown) [Example 45, 1-(6-chloro-1-ethyl-1,2,3,4-tetrahydroquinolin-4-yl)-3-(4-methyl-3-(1-methyl-6-oxo-1,6-dihydropyridin-3-yl)-1-phenyl-1H-pyrazol-5-yl)urea], which IC50 is on record?
Answer: < 100 nM

Question: How did the IC50 turn out when `CCN1CCC(NC(=O)Nc2c(C)c(OC)nn2-c2ccccc2)c2cc(Cl)ccc21` (stereo not shown) [Example 46, 1-(6-chloro-1-ethyl-1,2,3,4-tetrahydroquinolin-4-yl)-3-(3-methoxy-4-methyl-1-phenyl-1H-pyrazol-5-yl)urea] was run?
Answer: < 100 nM

Question: For `CO[C@H]1Cc2ccccc2[C@@H]1NC(=O)Nc1c2c(nn1-c1ccccc1)CCC2` [Example 47, 1-((1S,2S)-2-methoxy-2,3-dihydro-1H-inden-1-yl)-3-(2-phenyl-2,4,5,6-tetrahydrocyclopenta[c]pyrazol-3-yl)urea], which IC50 is on record?
Answer: 100 to 1000 nM

Question: `COCCO[C@H]1Cc2ccccc2[C@@H]1NC(=O)Nc1c2c(nn1-c1ccccc1)CCC2` [Example 48, 1-((1S,2S)-2-(2-methoxyethoxy)-2,3-dihydro-1H-inden-1-yl)-3-(2-phenyl-2,4,5,6-tetrahydrocyclopenta[c]pyrazol-3-yl)urea] was tested. Which IC50 did it give?
Answer: 100 to 1000 nM

Question: With `CCOc1nn(-c2ccccc2)c(NC(=O)N[C@H]2c3ccccc3C[C@@H]2OCCOC)c1C` [Example 49, 1-(3-ethoxy-4-methyl-1-phenyl-1H-pyrazol-5-yl)-3-((1S,2S)-2-(2-methoxyethoxy)-2,3-dihydro-1H-inden-1-yl)urea] as the molecule, how does the IC50 read?
Answer: 100 to 1000 nM
